Assay [1] has as its system acyl-CoA synthetases. In words: In vitro activity assay of Schizochytrium FAS-KO cell free homogenate with Triacsin C (HIP extraction, normal phase TLC). Type of assay: biochemical. The conditions noted are these: Triacsin C 0, 25, 100 or 200 uM, 10 minutes, then ATP and Mg+2, additional 20 minutes; effect at higher concentrations. On the procedure: An example of a protocol for preparation of cell free homogenates (CFH) from the cell wall deficient strains of Schizochytrium is as follows. Cells were grown in A50-3 medium and then diluted into M2B medium. The media used for growing the KO strains were supplemented with the appropriate fatty acid. Cells were grown to an OD600 nm of >˜2.5 and <˜5 in the M2B media. Cells in 50 mL of culture medium were collected by centrifugation (table top centrifuge—˜1200 rpm×4 minutes) in 50 mL plastic tubes. The supernatant was decanted and the cells resuspended 5 mL Buffer A (100 mM Phosphate pH 7.2, 10% (w/v) glycerol, 1 mM EDTA and 2 mM DTT) and centrifuged as before. The supernatant was discarded and the cells resuspended in ice cold 5 mL Buffer A. The suspension was sonicated (Ultrasonic Processor Model GE130 with microtip, Pulser at 2 seconds, ˜1 Watt power setting) with tube on ice for 1.5 minutes. The sample was checked by microscopy to ensure that all of the cells were broken. The CFH was aliquoted in 200 uL portions into 0.5 mL PCR tubes with caps and frozen by dropping into liquid N2. Samples were stored at −74° C. until needed.
An example of a protocol for in vitro activity assays of both FAS and PUFA synthase activities is as follows. […]

Assay [2] concerns yeast. In words: Fatty acid profile (GC of FAMEs) of yeast strains grown without or with cerulenin (FAS inhibition). Type of assay: cell-based, Saccharomyces cerevisiae. An excerpt:
The present inventors tested the effects of cerulenin on fatty acid profiles of the strains of yeast described in Example 8 as a model of the concept of reduction of FAS activity. The yeast described in Example 9, which also contained an acyl CoA-synthetase, were additionally tested in this system, to determine whether the effects of the two strategies would additively or synergistically increase PUFA production.
Initial experiments indicated the maximum effect (i.e., as an increase in PUFAs as a percentage of the total fatty acid profile) was obtained at a concentration of 4 uM cerulenin. The cerulenin was added 4 hours after transfer to the galactose induction medium. Cells were harvested 19 hr after transfer to induction medium, freeze dried, FAMES prepared and analyzed by GC.
The yeast strains tested were: • Strain 5.5 contained the PUFA synthase genes (sOrfA, sOrfB, OrfC and Het I), as described in Example 8 above; and • Strain 5.6 contained the PUFA synthase gene set of Strain 5.5, plus the ScACoAS-1 (SEQ ID NO:82), as described in Example 9 above.
Referring to Table 2, “0 Cer” indicates cerulenin was not added, and “4 uM Cer” indicates the media was made to 4 uM cerulenin 4 hours after transfer to the induction medium). Each strain was evaluated for fatty acid production in the presence and absence of the cerulenin, to evaluate the effect of the inhibition of the FAS pathway on PUFA production. […] The values are given as a percentage of the total fatty acids detected. DHA and DPAn-6, which are the products of the Schizochytrium PUFA PKS system, were the only PUFAs present in the profiles. FIGS. 9 and 10 illustrate the amount of DHA (FIG. 9) or DHA and DPAn-6 (FIG. 10; white bars are DHA; black bars are DHA+DPAn-6) produced by the yeast, as a percentage of total FAME.

Assay [3] relates to Schizochytrium. In words: Knock out of the DAGAT gene in Schizochytrium, lipid profile. Type of assay: cell-based. The note with it: inactivation of the DAGAT gene in Schizochytrium.

As for `CCC/C=C/C/C=C/C=C/C=N/NN=O` [Triacsin C], in assay [1], the “loss of radiolabel from the FFA band” value is recorded as “blocked the loss of radiolabel from the FFA band”.
Take `C/C=C/C/C=C/CCC(=O)[C@H]1O[C@H]1C(N)=O` [cerulenin]: the “DHA level, of total fatty acids” value in assay [2] (cells expressing both the PUFA synthase and ScACoAS-1 genes grown in 4 uM cerulenin (4.1% without)) turned out to be 8.2%. In assay [2] (cells with just the PUFA synthase system grown in 4 uM cerulenin (1.2% without)), the DHA level was 3.7%. For the same molecule, the “concentration giving the maximum effect (increase in PUFAs as a percentage of the total fatty acid profile)” value in assay [2] (initial experiments) was found to be 4 µM.

B1: DAGAT: Schizochytrium diacylglycerol acyltransferase, SEQ ID NO:100/101 (protein, listed as Schizochytrium sp.)
chain: MERPQAQASPARSEARRRRGDRSKGFADEDGETSVNTPNGMQTPYSTSMGSVSSYSSSGDYAMSEAEGSEVDPADDRMGDSIGSKPSSSSVTGRRRLTQEERDYFLRLEKEWREEDAWADQPGSWYSMLAWMPVLIGLRVFNVLLSIAFWPVSFVARVFFGKKIHTVSFWDVPLSRRKQTAVVLLFVMLLPMVVVVYSWTLVLLLFPLTTFPTLCYMVWIIYVDKSPETGSRRPFLRYWKMWRHFANYFPLRLIRTTPLDSRRKYVFCYHPHGIISLGAFGNFATDSTGFSRKFPGIDLRVLTLALNFYCPLLREFLLYLGLCSAAKKSCNQILQRGPGSAIMLVVGGAAESLDSQPGTYRLTLGRKGFVRVALDNGADLVPVLAFGENDVFDTVYLPPNSWARNVQEFVRKKLGFATPIFSGRGIFQYNMGLMPHRRPIIVVVGKPIKMPKIPDELKGRALSTTAEGVALVDKYHEKYVKALRELWNLYKERWAVHRQGSLLIQK
For B1, in assay [3], the “reduction in TAG” value is listed as about 90% and the “reduction in mg FAME/gm biomass” value was about 80%.

The values are drawn from US20070245431A1, “POLYUNSATURATED FATTY ACID PRODUCTION IN HETEROLOGOUS ORGANISMS USING PUFA POLYKETIDE SYNTHASE SYSTEMS” (priority 2006, published 2007).
